Measurements published in patent publication US9512107B2, “Therapeutically active compositions and their methods of use” (Agios Pharmaceuticals, Inc., priority 2012, dated 2016).
Where a chain is given by its changes, count along the chain named.

What was measured:
IDH2 R172K = target: T1, IDH2 R172K (Homo sapiens, UniProt P48735, R172K); experiment: IDH2 R172K enzymatic assay (NADPH cofactor depletion, diaphorase/resazurin readout); assay type: biochemical; conditions: read-out: Enz R172K
T1 sequence (P48735 40-452 R172K): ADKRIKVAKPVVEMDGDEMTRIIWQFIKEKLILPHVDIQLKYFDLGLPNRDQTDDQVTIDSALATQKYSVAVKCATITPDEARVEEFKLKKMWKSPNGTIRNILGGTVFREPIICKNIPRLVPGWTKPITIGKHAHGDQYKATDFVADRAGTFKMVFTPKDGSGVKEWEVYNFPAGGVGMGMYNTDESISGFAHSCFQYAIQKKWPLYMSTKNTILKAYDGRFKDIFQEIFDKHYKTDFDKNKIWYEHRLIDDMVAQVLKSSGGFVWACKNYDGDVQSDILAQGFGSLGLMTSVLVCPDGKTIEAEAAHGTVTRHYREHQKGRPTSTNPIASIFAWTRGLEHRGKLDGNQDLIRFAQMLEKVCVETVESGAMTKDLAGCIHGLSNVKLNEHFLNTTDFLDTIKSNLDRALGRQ
Procedure, shortened: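 Residual NADPH is read out as resorufin fluorescence after quenching with 36 μg/ml diaphorase and 60 μM resazurin in stop mix. The stop follows a 1 h room-temperature reaction started by a substrate mix of NADPH (50 μM) and α-KG (6.3 mM), with compound preincubated with enzyme for 1 h beforehand.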

IDH2 R140Q = target: T2, IDH2 R140Q (Homo sapiens, UniProt P48735, R140Q); experiment: IDH2 R140Q enzymatic assay (cofactor depletion, similar format); assay type: biochemical; conditions: read-out: Enz R140Q
T2 sequence (P48735 40-452 R140Q): T1 sequence (P48735 40-452 R172K) with R101Q, K133R

[1] = tested on: U87MG pLVX-IDH2 R140Q-neo cells; experiment: U87MG pLVX-IDH2 R140Q-neo cell based assay, 2-HG in media by LC-MS at 48 hours; conditions: Homo sapiens, U-87 MG
Procedure, shortened: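 2-HG secreted into the medium was measured by LC-MS after 48 h of compound treatment (0.2% DMSO final) of U87MG pLVX-IDH2 R140Q-neo cells in DMEM/10% FBS. The same wells were assayed at 72 h by CellTiter-Glo luminescence for effects on growth.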

IC50 (IDH2 R172K) | IC50 (IDH2 R140Q) | IC50 [1] | Structure (SMILES)
100 to 1000 nM | 100 to 1000 nM | < 100 nM | CC(C)Nc1nc(Nc2ccnc(CC#N)c2)nc(-c2cccc(C(F)(F)F)n2)n1 [Compound 672, {4-[4-Isopropylamino-6-(6-trifluoromethyl-pyridin-2-yl)-[1,3,5]triazin-2-ylamino]-pyridin-2-yl}-acetonitrile]
< 100 nM | 100 to 1000 nM | < 100 nM | CC(C)Nc1nc(Nc2ccnc(C(F)F)c2)nc(-c2cccc(C(F)F)n2)n1 [Compound 673, 6-(6-Difluoromethyl-pyridin-2-yl)-N-(2-difluoromethyl-pyridin-4-yl)-N′-isopropyl-[1,3,5]triazine-2,4-diamine]
100 to 1000 nM | 100 to 1000 nM | < 100 nM | CC(C)Nc1nc(Nc2ccnc(C3(O)CC3)c2)nc(-c2cccc(C(F)(F)F)n2)n1 [Compound 674, 1-{4-[4-Isopropylamino-6-(6-trifluoromethyl-pyridin-2-yl)-[1,3,5]triazin-2-ylamino]-pyridin-2-yl}-cyclopropanol]
< 100 nM | 100 to 1000 nM | < 100 nM | CC(C)Nc1nc(Nc2ccnc(C(F)F)c2)nc(-c2cccc(C(C)(F)F)n2)n1 [Compound 675, 6-[6-(1,1-Difluoro-ethyl)-pyridin-2-yl]-N-(2-difluoromethyl-pyridin-4-yl)-N′-isopropyl-[1,3,5]triazine-2,4-diamine]
< 100 nM | 100 to 1000 nM | < 100 nM | CC(C)Nc1nc(Nc2ccnc(CF)c2)nc(-c2cccc(C(F)(F)F)n2)n1 [Compound 676, N-(2-Fluoromethyl-pyridin-4-yl)-N′-isopropyl-6-(6-trifluoromethyl-pyridin-2-yl)-[1,3,5]triazine-2,4-diamine]
< 100 nM | 100 to 1000 nM | < 100 nM | CC(C)Nc1nc(Nc2ccnc(C(C)(C)C#N)c2)nc(-c2cccc(C(C)(F)F)n2)n1 [Compound 677, 2-(4-{4-[6-(1,1-Difluoro-ethyl)-pyridin-2-yl]-6-isopropylamino-[1,3,5]triazin-2-ylamino}-pyridin-2-yl)-2-methyl-propionitrile]
100 to 1000 nM | 1000 to 10000 nM | < 100 nM | CC(C)(O)CNc1nc(Nc2ccnc(C(C)(C)C#N)c2)nc(-c2cccc(C(F)(F)F)n2)n1 [Compound 678, 2-{4-[4-(2-Hydroxy-2-methyl-propylamino)-6-(6-trifluoromethyl-pyridin-2-yl)-[1,3,5]triazin-2-ylamino]-pyridin-2-yl}-2-methyl-propionitrile]
> 10000 nM | 100 to 1000 nM | 100 to 1000 nM | COC(=O)Nc1cccc(-c2nc(Nc3ccnc(C(F)(F)F)c3)nc(NC(C)C)n2)n1 [Compound 679, Methyl(6-(4-(isopropylamino)-6-((2-(trifluoromethyl)pyridin-4-yl)amino)-1,3,5-triazin-2-yl)pyridin-2-yl)carbamate]
< 100 nM | 100 to 1000 nM | < 100 nM | CC(C)Nc1nc(Nc2ccnc(C(F)(F)F)c2)nc(-c2cccc(N)n2)n1 [Compound 687, 6-(6-aminopyridin-2-yl)-N2-isopropyl-N4-(2-(trifluoromethyl)pyridin-4-yl)-1,3,5-triazine-2,4-diamine]
< 100 nM | 100 to 1000 nM | < 100 nM | CC(C)(C)CNc1nc(Nc2ccnc(C(F)(F)F)c2)nc(-c2cccc(N)n2)n1 [Compound 689, 6-(6-aminopyridin-2-yl)-N2-neopentyl-N4-(2-(trifluoromethyl)pyridin-4-yl)-1,3,5-triazine-2,4-diamine]
< 100 nM | 100 to 1000 nM | < 100 nM | CC(C)CNc1nc(Nc2ccnc(C(F)(F)F)c2)nc(-c2cccc(N)n2)n1 [Compound 690, 6-(6-aminopyridin-2-yl)-N2-isobutyl-N4-(2-(trifluoromethyl)pyridin-4-yl)-1,3,5-triazine-2,4-diamine]
100 to 1000 nM | 100 to 1000 nM | < 100 nM | CC(C)(O)CNc1nc(Nc2cc(F)cc(F)c2)nc(-c2cccc(N)n2)n1 [Compound 691, 1-(4-(6-aminopyridin-2-yl)-6-(3,5-difluorophenylamino)-1,3,5-triazin-2-ylamino)-2-methylpropan-2-ol]
< 100 nM | 100 to 1000 nM | < 100 nM | CC1(Nc2nc(Nc3ccnc(C(F)(F)F)c3)nc(-c3cccc(N)n3)n2)CC1 [Compound 692, 6-(6-aminopyridin-2-yl)-N2-(1-methylcyclopropyl)-N4-(2-(trifluoromethyl)pyridin-4-yl)-1,3,5-triazine-2,4-diamine]
< 100 nM | 100 to 1000 nM | < 100 nM | CC1(Nc2nc(Nc3cc(F)cc(F)c3)nc(-c3cccc(N)n3)n2)CC1 [Compound 693, 6-(6-aminopyridin-2-yl)-N2-(3,5-difluorophenyl)-N4-(1-methylcyclopropyl)-1,3,5-triazine-2,4-diamine]
< 100 nM | 100 to 1000 nM | < 100 nM | CC(Nc1nc(Nc2ccnc(C(F)(F)F)c2)nc(-c2cccc(N)n2)n1)C(F)(F)F (stereo not drawn) [Compound 694, 6-(6-aminopyridin-2-yl)-N2-(2-(trifluoromethyl)pyridin-4-yl)-N4-(1,1,1-trifluoropropan-2-yl)-1,3,5-triazine-2,4-diamine]
< 100 nM | 100 to 1000 nM | < 100 nM | CC(C)(C)Nc1nc(Nc2ccnc(C(F)(F)F)c2)nc(-c2cccc(N)n2)n1 [Compound 695, 6-(6-aminopyridin-2-yl)-N2-tert-butyl-N4-(2-(trifluoromethyl)pyridin-4-yl)-1,3,5-triazine-2,4-diamine]
100 to 1000 nM | 100 to 1000 nM | < 100 nM | CC(C)Nc1nc(Nc2ccnc(C(C)(F)F)c2)nc(-c2cccc(N)n2)n1 [Compound 696, 6-(6-aminopyridin-2-yl)-N2-(2-(1,1-difluoroethyl)pyridin-4-yl)-N4-isopropyl-1,3,5-triazine-2,4-diamine]
1000 to 10000 nM | 100 to 1000 nM | 100 to 1000 nM | CC(=O)Nc1cccc(-c2nc(Nc3ccnc(C(F)(F)F)c3)nc(NC(C)C)n2)n1 [Compound 697, N-(6-(4-(isopropylamino)-6-(2-(trifluoromethyl)pyridin-4-ylamino)-1,3,5-triazin-2-yl)pyridin-2-yl)acetamide]
< 100 nM | 100 to 1000 nM | < 100 nM | CC(C)(C)Nc1nc(Nc2cc(F)cc(F)c2)nc(-c2cccc(N)n2)n1 [Compound 698, 6-(6-aminopyridin-2-yl)-N2-(tert-butyl)-N4-(3,5-difluorophenyl)-1,3,5-triazine-2,4-diamine]
< 100 nM | 100 to 1000 nM | < 100 nM | Nc1cccc(-c2nc(NCC3CC3)nc(Nc3cc(F)cc(F)c3)n2)n1 [Compound 699, 6-(6-aminopyridin-2-yl)-N2-(cyclopropylmethyl)-N4-(3,5-difluorophenyl)-1,3,5-triazine-2,4-diamine]
